Experimental data: patent publication US7994185B2, “Benzene sulfonamide thiazole and oxazole compounds” (Glaxo Smith Kline LLC, priority 2008, dated 2011)
Where a name gives a salt, the structure may show the parent alone. Read-outs that look alike come from different tables or passages of the source.

Biological target: T1, BRAFV600E full-length (amino acids 2-766) (Homo sapiens, UniProt P15056, V600E)
T1 construct: His6-tagged BRAFV600E full-length (amino acids 2-766); His6; made in house; host or cells: baculovirus expression system (insect cells)
T1 sequence (P15056 2-766 V600E): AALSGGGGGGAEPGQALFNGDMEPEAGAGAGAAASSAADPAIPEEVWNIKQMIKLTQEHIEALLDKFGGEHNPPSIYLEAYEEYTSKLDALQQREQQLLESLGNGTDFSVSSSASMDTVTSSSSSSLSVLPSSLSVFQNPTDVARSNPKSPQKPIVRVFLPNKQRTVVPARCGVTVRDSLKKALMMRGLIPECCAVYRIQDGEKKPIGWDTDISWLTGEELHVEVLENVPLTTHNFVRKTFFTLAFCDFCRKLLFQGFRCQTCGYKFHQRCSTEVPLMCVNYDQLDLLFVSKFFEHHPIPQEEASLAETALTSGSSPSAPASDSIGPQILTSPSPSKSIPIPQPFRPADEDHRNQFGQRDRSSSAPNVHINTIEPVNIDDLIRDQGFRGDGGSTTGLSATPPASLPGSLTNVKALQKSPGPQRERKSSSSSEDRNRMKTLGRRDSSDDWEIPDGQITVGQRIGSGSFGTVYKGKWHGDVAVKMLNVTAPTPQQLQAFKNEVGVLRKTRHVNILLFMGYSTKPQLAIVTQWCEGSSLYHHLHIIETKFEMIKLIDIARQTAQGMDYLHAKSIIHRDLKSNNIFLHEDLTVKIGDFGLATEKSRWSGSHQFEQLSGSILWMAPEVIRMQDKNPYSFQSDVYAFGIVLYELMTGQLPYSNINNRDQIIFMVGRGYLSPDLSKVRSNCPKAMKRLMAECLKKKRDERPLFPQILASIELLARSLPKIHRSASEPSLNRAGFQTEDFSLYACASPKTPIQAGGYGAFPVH
Assay: B-Raf Accelerated MEK ATPase assay (BRAMA)
Format: biochemical
Settings: categorized
Description: Compounds of the present invention were tested for B-Raf protein serine kinase inhibitory activity in a B-Raf Accelerated MEK ATPase assay (BRAMA). […] The BRAMA assay is a high sensitivity assay which measures an intrinsic MEK-mediated ATP hydrolysis uncoupled from downstream ERK phosphorylation by coupling the formation of ADP to NADH oxidation through the enzymes pyruvate kinase and lactate dehydrogenase. When ADP production is initiated by addition of catalytic amounts of an activated Raf enzyme and non-phosphorylated MEK, one observes robust ADP production concomitant with Raf-mediated phosphorylation of MEK. The method is disclosed in: C. Rominger, M. Schaber, E. May. Assay for B-Raf Activity Based on Intrinsic MEK ATPase Activity.

[1] = B-Raf Activity, Table 1a, highest pIC50 for the one or more runs
[2] = Table 1b, later runs, average pIC50 for the one or more runs, read-out: B-Raf pIC50 (converted)
[3] = B-Raf pIC50, Table 1b, later runs, average pIC50 for the one or more runs
[4] = Table 1a, highest pIC50 for the one or more runs, read-out: B-Raf Activity

SMILES | IC50 [3] | other results
CC(C)c1nc(-c2cccc(NS(=O)(=O)c3cccc(F)c3)c2)c(-c2ccnc(NCC(N)=O)n2)s1 [Example 87, N^2-{4-[4-(3-{[(3-Fluorophenyl)sulfonyl]amino}phenyl)-2-(1-methylethyl)-1,3-thiazol-5-yl]-2-pyrimidinyl}glycinamide] |  | IC50 [1]: < 0.1 µM; IC50 [2]: 0.00316 to 0.0316 µM
CC(C)c1nc(-c2cccc(NS(=O)(=O)c3cccc(F)c3)c2)c(-c2ccnc(NC3CC3)n2)s1 [Example 89, N-{3-[5-[2-(Cyclopropylamino)-4-pyrimidinyl]-2-(1-methylethyl)-1,3-thiazol-4-yl]phenyl}-3-fluorobenzenesulfonamide] | 0.0316 to 1 µM | IC50 [1]: < 0.1 µM
C[C@@H](O)CNc1nccc(-c2sc(C3CCOCC3)nc2-c2cccc(NS(=O)(=O)c3ccoc3)c2F)n1 [Example 302, N-{2-fluoro-3-[5-(2-{[(2R)-2-hydroxypropyl]amino}-4-pyrimidinyl)-2-(tetrahydro-2H-pyran-4-yl)-1,3-thiazol-4-yl]phenyl}-3-furansulfonamide] | ≤ 0.00316 µM | 
CC(C)(C)c1nc(-c2cccc(NS(=O)(=O)c3cc(F)ccc3F)c2)c(-c2ccnc(N)n2)s1 [Example 116, N-{3-[5-(2-Amino-4-pyrimidinyl)-2-(1,1-dimethylethyl)-1,3-thiazol-4-yl]phenyl}-2,5-difluorobenzenesulfonamide] |  | IC50 [1]: < 0.1 µM; IC50 [2]: 0.00316 to 0.0316 µM
C=Cc1nccc(-c2sc(N3CCOCC3)nc2-c2cccc(NS(=O)(=O)c3cc(F)ccc3F)c2F)n1 [Example 277, N-{3-[5-(2-ethenyl-4-pyrimidinyl)-2-(4-morpholinyl)-1,3-thiazol-4-yl]-2-fluorophenyl}-2,5-difluorobenzenesulfonamide] |  | IC50 [2]: 0.00316 to 0.0316 µM
CC(C)(C(N)=O)c1nc(-c2cccc(NS(=O)(=O)c3c(F)cccc3F)c2F)c(-c2ccnc(N)n2)s1 [Example 309, 2-[5-(2-Amino-4-pyrimidinyl)-4-(3-{[(2,6-difluorophenyl)sulfonyl]amino}-2-fluorophenyl)-1,3-thiazol-2-yl]-2-methylpropanamide] | ≤ 0.00316 µM | 
CC(C)c1nc(-c2cccc(NS(=O)(=O)c3c(F)cccc3F)c2F)c(-c2ccnc(NCCS(C)(=O)=O)n2)s1 [Example 11, 2,6-Difluoro-N-{2-fluoro-3-[2-(1-methylethyl)-5-(2-{[2-(methylsulfonyl)ethyl]amino}-4-pyrimidinyl)-1,3-thiazol-4-yl]phenyl}benzenesulfonamide] | ≤ 0.00316 µM | IC50 [1]: < 0.1 µM
CC(C)(C)c1nc(-c2cccc(NS(=O)(=O)c3ccoc3)c2F)c(-c2ccnc(N)n2)o1 [Example 299, N-{3-[5-(2-amino-4-pyrimidinyl)-2-(1,1-dimethylethyl)-1,3-oxazol-4-yl]-2-fluorophenyl}-3-furansulfonamide] | ≤ 0.00316 µM | 
C[C@H](O)CNc1nccc(-c2sc(C3CCOCC3)nc2-c2cccc(NS(=O)(=O)c3ccoc3)c2F)n1 [Example 303, N-{2-fluoro-3-[5-(2-{[(2S)-2-hydroxypropyl]amino}-4-pyrimidinyl)-2-(tetrahydro-2H-pyran-4-yl)-1,3-thiazol-4-yl]phenyl}-3-furansulfonamide] | ≤ 0.00316 µM | 
COCCCNc1nccc(-c2sc(C(C)C)nc2-c2ccc(F)c(NS(=O)(=O)c3c(F)cccc3F)c2)n1 [Example 174] |  | IC50 [4]: 0.1 to 1 µM
CC(C)c1nc(-c2ccc(F)c(NS(=O)(=O)c3c(F)cccc3F)c2)c(-c2ccnc(NCCCCN(C)C)n2)s1 [Example 173] |  | IC50 [4]: 0.1 to 1 µM
CC(C)c1nc(-c2ccc(F)c(NS(=O)(=O)c3cccc(F)c3)c2)c(-c2ccnc(N)n2)s1 [Example 84, N-{5-[5-(2-Amino-4-pyrimidinyl)-2-(1-methylethyl)-1,3-thiazol-4-yl]-2-fluorophenyl}-3-fluorobenzenesulfonamide] | 0.0316 to 1 µM | IC50 [1]: 0.1 to 1 µM
CC(C)(C)c1nc(-c2cccc(NS(=O)(=O)c3c(F)cccc3F)c2F)c(-c2ccnc(NC3CC3)n2)s1 [Example 294, N-{3-[5-[2-(cyclopropylamino)-4-pyrimidinyl]-2-(1,1-dimethylethyl)-1,3-thiazol-4-yl]-2-fluorophenyl}-2,6-difluorobenzenesulfonamide] | ≤ 0.00316 µM | 
CC(C)c1nc(-c2ccc(F)c(NS(=O)(=O)c3c(F)cccc3F)c2)c(-c2ccnc(NCCOCCO)n2)s1 [Example 172] |  | IC50 [4]: 0.1 to 1 µM
CS(=O)(=O)NCc1nccc(-c2sc(N3CCOCC3)nc2-c2cccc(NS(=O)(=O)c3cc(F)ccc3F)c2F)n1 [Example 273, 2,5-difluoro-N-{2-fluoro-3-[5-(2-{[(methylsulfonyl)amino]methyl}-4-pyrimidinyl)-2-(4-morpholinyl)-1,3-thiazol-4-yl]phenyl}benzenesulfonamide] | ≤ 0.00316 µM | 
CC(C)(C)c1nc(-c2cccc(NS(=O)(=O)c3ccco3)c2Cl)c(-c2ccncn2)s1 [Example 261, N-{2-chloro-3-[2-(1,1-dimethylethyl)-5-(4-pyrimidinyl)-1,3-thiazol-4-yl]phenyl}-2-furansulfonamide] | ≤ 0.00316 µM | 
CC(C)CNc1nccc(-c2sc(C3CCOCC3)nc2-c2cccc(NS(=O)(=O)c3ccoc3)c2F)n1 [Example 304, N-{2-fluoro-3-[5-{2-[(2-methylpropyl)amino]-4-pyrimidinyl}-2-(tetrahydro-2H-pyran-4-yl)-1,3-thiazol-4-yl]phenyl}-3-furansulfonamide] | ≤ 0.00316 µM | 
CC(C)(C)c1nc(-c2cccc(NS(=O)(=O)c3cc(F)ccc3F)c2F)c(-c2ccnc(N)n2)o1 [Example 297, N-{3-[5-(2-amino-4-pyrimidinyl)-2-(1,1-dimethylethyl)-1,3-oxazol-4-yl]-2-fluorophenyl}-2,5-difluorobenzenesulfonamide] | ≤ 0.00316 µM | 
CC(=O)NCc1nccc(-c2sc(N3CCOCC3)nc2-c2cccc(NS(=O)(=O)c3cc(F)ccc3F)c2F)n1 [Example 276, N-({4-[4-(3-{[(2,5-difluorophenyl)sulfonyl]amino}-2-fluorophenyl)-2-(4-morpholinyl)-1,3-thiazol-5-yl]-2-pyrimidinyl}methyl)acetamide] |  | IC50 [2]: 0.00316 to 0.0316 µM
Nc1nccc(-c2sc(C3CCNCC3)nc2-c2cccc(NS(=O)(=O)c3c(F)cccc3F)c2F)n1 [Example 322, N-{3-[5-(2-amino-4-pyrimidinyl)-2-(4-piperidinyl)-1,3-thiazol-4-yl]-2-fluorophenyl}-2,6-difluorobenzenesulfonamide] | ≤ 0.00316 µM | 
Cn1ccc(S(=O)(=O)Nc2cccc(-c3nc(C(C)(C)C)sc3-c3ccnc(N)n3)c2F)n1 [Example 288, N-{3-[5-(2-amino-4-pyrimidinyl)-2-(1,1-dimethylethyl)-1,3-thiazol-4-yl]-2-fluorophenyl}-1-methyl-1H-pyrazole-3-sulfonamide hydrochloride] | 0.0316 to 1 µM | 
CC(C)c1nc(-c2cccc(NS(=O)(=O)c3c(F)cccc3F)c2)c(-c2ccnc(NCCS(C)(=O)=O)n2)s1 [Example 1, 2,6-Difluoro-N-{3-[2-(1-methylethyl)-5-(2-{[2-(methylsulfonyl)ethyl]amino}-4-pyrimidinyl)-1,3-thiazol-4-yl]phenyl}benzenesulfonamide] | ≤ 0.00316 µM | IC50 [1]: < 0.1 µM
CCN(CC)CCNc1nccc(-c2sc(C3CCOCC3)nc2-c2cccc(NS(=O)(=O)c3ccoc3)c2F)n1 [Example 301, N-{3-[5-(2-{[2-(diethylamino)ethyl]amino}-4-pyrimidinyl)-2-(tetrahydro-2H-pyran-4-yl)-1,3-thiazol-4-yl]-2-fluorophenyl}-3-furansulfonamide] | ≤ 0.00316 µM | 
CC(C)c1nc(-c2ccc(F)c(NS(=O)(=O)c3c(F)cccc3F)c2)c(-c2ccnc(NCCN3CCCC3)n2)s1 [Example 170] |  | IC50 [4]: > 1 µM
CC(C)(C)c1nc(-c2cccc(NS(=O)(=O)c3c(F)cccc3F)c2F)c(-c2ccnc(N)n2)o1 [Example 296, N-{3-[5-(2-amino-4-pyrimidinyl)-2-(1,1-dimethylethyl)-1,3-oxazol-4-yl]-2-fluorophenyl}-2,6-difluorobenzenesulfonamide] | ≤ 0.00316 µM | 
CC(C)C(=O)NCc1nccc(-c2sc(N3CCOCC3)nc2-c2cccc(NS(=O)(=O)c3cc(F)ccc3F)c2F)n1 [Example 275, N-({4-[4-(3-{[(2,5-difluorophenyl)sulfonyl]amino}-2-fluorophenyl)-2-(4-morpholinyl)-1,3-thiazol-5-yl]-2-pyrimidinyl}methyl)-2-methylpropanamide] |  | IC50 [2]: 0.00316 to 0.0316 µM
C[C@H](O)CNc1nccc(-c2sc(C(C)(C)C)nc2-c2cccc(NS(=O)(=O)c3c(F)cccc3F)c2F)n1 [Example 291, N-{3-[2-(1,1-dimethylethyl)-5-(2-{[(2S)-2-hydroxypropyl]amino}-4-pyrimidinyl)-1,3-thiazol-4-yl]-2-fluorophenyl}-2,6-difluorobenzenesulfonamide] | ≤ 0.00316 µM | 
CC(C)c1nc(-c2cccc(NS(=O)(=O)c3c(F)cccc3F)c2)c(-c2ccnc(N)n2)s1 [Example 90, N-{3-[5-(2-Amino-4-pyrimidinyl)-2-(1-methylethyl)-1,3-thiazol-4-yl]phenyl}-2,6-difluorobenzenesulfonamide] | 0.0316 to 1 µM | IC50 [1]: < 0.1 µM
CC(C)(N)c1nc(-c2cccc(NS(=O)(=O)c3ccoc3)c2F)c(-c2ccnc(N)n2)s1 [Example 312, N-{3-[2-(1-amino-1-methylethyl)-5-(2-amino-4-pyrimidinyl)-1,3-thiazol-4-yl]-2-fluorophenyl}-3-furansulfonamide] | ≤ 0.00316 µM | 
CC(C)c1nc(-c2ccc(F)c(NS(=O)(=O)c3c(F)cccc3F)c2)c(-c2ccnc(NCCCN(C)C)n2)s1 [Example 169] |  | IC50 [4]: > 1 µM
